What all share (format): in vivo
One assay has as its system Phytophthora infestans. Nature of the assay: whole plant or invertebrate. Particulars: in Solanum lycopersicum, 72 h, read-out: Efficiacy in %.
The next assay has as its system Fusarium nivale. Nature of the assay: Fusarium nivale test (triticale)/seed treatment. Particulars: triticale seed dressing, about 3 weeks after sowing. The protocol: Fusarium nivale test (triticale)/seed treatment
(§1) The active compounds are applied as dry seed dressings. These are prepared by extending the respective active compound or the active compound combination with ground minerals to give a finely pulverulent mixture which ensures uniform distribution on the seed surface.
(§2) To dress the seed, the infected seed together with the seed dressing is shaken for 3 minutes in a sealed glass flask.
2×100 corns of triticale are sown at a depth of 1 cm in standard soil and cultivated in a greenhouse at a temperature of about 10° C. and a relative atmospheric humidity of about 95% in seed trays which receive a light regimen of 15 hours per day.
About 3 weeks after sowing, the plants are evaluated for symptoms. 0% means an efficacy which corresponds to that of the control, while an efficacy of 100% means that no infection is observed.

The subject of the next assay is Pythium sp. Nature of the assay: Pythium sp. test (pea)/seed treatment. Conditions: pea seed dressing, evaluation after 14 days. The protocol:
Pythium sp. test (pea)/seed treatment
as §1, §2
2×50 corns of seed are sown at a depth of 2 cm in compost soil naturally infected with phythium sp. and cultivated in a greenhouse at a temperature of about 20° C. in seed trays which receive a light regimen of 15 hours per day.
Evaluation is carried out after 14 days. 0% means an efficacy which corresponds to that of the control, while an efficacy of 100% means that no infection is observed.

The structures appear in SMILES notation.

The values below come from patent US20020072535A1 (priority 1997, published 2002).

`Cc1cc(C)nc(Nc2ccccc2)n1`: the pest or weed control at 1 g/ha in the assay on Phytophthora infestans stood at 0%. Regarding `CC(C)(C)C(O)C(Oc1ccc(Cl)cc1)n1cncn1` (centres unmarked), the pest or weed control at 0.2 g/ha with Phytophthora infestans stood at 0%. Take `COc1ccc(C(=CC(=O)N2CCOCC2)c2ccc(Cl)cc2)cc1OC`: the pest or weed control at 0.2 g/ha in the assay on Phytophthora infestans turned out to be 0%.

Consider `Cc1cc(C2CC2)nc(Nc2ccccc2)n1`, for which the pest or weed control at 1 g/ha in the assay on Phytophthora infestans turned out to be 0%. On to `Cc1noc(C)c1S(=O)(=O)n1c(Cl)nc2cc3c(cc21)OC(F)(F)O3` [(Ib), 1-(3,5-dimethyl-isoxazole-4-sulphonyl)-2-chloro-6,6-difluoro-[1,3]-dioxolo-[4,5f]-benzimidazole], for which the figures for the Efficacy in % in the assay with Fusarium nivale (100 mg/kg of seed), in the assay on Fusarium nivale (500 mg/kg of seed) and with Pythium sp. (1000 mg/kg of seed) were 0%, 0% and 4%, respectively. The pest or weed control at 0.2 g/ha with Phytophthora infestans was determined as 37%. In the assay on Phytophthora infestans, the pest or weed control at 1 g/ha turned out to be 76%. `OC(Cc1ccccc1Cl)(Cn1nc[nH]c1=S)C1(Cl)CC1` (centres unmarked): the pest or weed control at 0.2 g/ha in the assay on Phytophthora infestans worked out at 0%.

With `CO/C=C(/C(=O)OC)c1ccccc1Oc1cc(Oc2ccccc2C#N)ncn1`, the pest or weed control at 0.2 g/ha with Phytophthora infestans came out at 51%. Turning to `O=[N+]([O-])/N=C1\NCCN1Cc1ccc(Cl)nc1` [drawing 67], the pest or weed control at 0.2 g/ha with Phytophthora infestans is 6%. On the same count and under the same terms, under `CC(C)(C)C(=O)C(Oc1ccc(Cl)cc1)n1cncn1` (centres unmarked) stands 0%. In the case of `CO/N=C(\C1=NOCCO1)c1ccccc1Oc1ncnc(Oc2ccccc2Cl)c1F`, the pest or weed control at 1 g/ha with Phytophthora infestans came out at 27%. Consider `Cc1ccc(C(C)NC(=O)C(NC(=O)OC(C)C)C(C)C)cc1` (centres unmarked), for which, in the assay with Phytophthora infestans, the pest or weed control at 0.2 g/ha is 0% and the pest or weed control at 1 g/ha worked out at 0%. Take `CC(C)(C)C(O)(CCc1ccc(Cl)cc1)Cn1cncn1` (centres unmarked): the pest or weed control at 0.2 g/ha with Phytophthora infestans came to 0%. For `O=[N+]([O-])/N=C1\NCCN1Cc1ccc(Cl)nc1` [(XXII), 1-[(6-chloro-3-pyridinyl)-methyl]-N-nitro-2-imidazolidineimine], the Efficacy in % with Fusarium nivale (100 mg/kg of seed) was 0%.

As for `O=C1c2ccccc2C(=O)N1SC(Cl)(Cl)Cl`, in the assay on Phytophthora infestans, the pest or weed control at 2 g/ha stood at 12%. For the compound `CCNC(=O)NC(=O)C(C#N)=NOC`, in the assay on Phytophthora infestans, the pest or weed control at 0.2 g/ha came out at 0%.

As for `CC(C)(C)C(O)C(Oc1ccc(-c2ccccc2)cc1)n1cncn1` (centres unmarked), the pest or weed control at 0.2 g/ha in the assay on Phytophthora infestans is 24%. Take `Cc1noc(C)c1S(=O)(=O)n1c(Br)nc2cc3c(cc21)OC(F)(F)O3` [(Ia), 1-(3,5-dimethyl-isoxazole-4-sulphonyl)-2-bromo6,6-difluoro[1,3]-dioxolo-[4,5f]-benzimidazole]: the Efficacy in % in the assay on Fusarium nivale (100 mg/kg of seed) is given as 26%. Also, in the assay with Phytophthora infestans, the pest or weed control at 0.2 g/ha turned out to be 14% and the pest or weed control at 1 g/ha is 65%. The Efficacy in % with Pythium sp. (500 mg/kg of seed) is recorded as 1%.

For `COCC(=O)N(c1c(C)cccc1C)C(C)C(=O)OC` (centres unmarked), in the assay with Phytophthora infestans, the pest or weed control at 0.2 g/ha was found to be 0%.

Regarding `CC1(C(=O)Nc2ccc(O)c(Cl)c2Cl)CCCCC1`, the pest or weed control at 5 g/ha with Phytophthora infestans was found to be 0%. As for `CCC(C)(NC(=O)c1cc(Cl)c(C)c(Cl)c1)C(=O)CCl` (centres unmarked), the pest or weed control at 0.2 g/ha with Phytophthora infestans was found to be 0%.

For `CO/C=C(/C(=O)OC)c1ccccc1COc1ccccc1C`, the pest or weed control at 0.2 g/ha in the assay with Phytophthora infestans was 0%.
